# Data as given in article PMC9006931, “Altered Response Pattern following AZD5582 Treatment of SIV-Infected, ART-Suppressed Rhesus Macaque Infants” (Journal of Virology, 2022).
# Assays:
# SIVmac251 = test: On-ART viremia (latency reversal) during AZD5582 treatment of SIV-infected, ART-suppressed infant RMs; assay type: in vivo, rhesus macaque (Macaca mulatta)
# From the text: In this study, latency reversal was defined as a plasma SIV RNA level above 60 copies/mL during AZD5582 treatment in the presence of continued daily ART (or, “on-ART viremia”). […] On-ART viremia peaked at 771 copies/mL in RVf20 2 days post-dose 9. […] This low-level viremia contrasts, however, with the sustained suppression below 60 copies/mL in the 10 months before AZD5582 treatment in these 3 infants (Fig. 1B).
# Twelve infant, Indian RMs (Macaca mulatta), with the exclusion of Mamu B*08- and B*17-positive animals, were enrolled in this study. The animals were born at the Yerkes National Primate Research Center (YNPRC) to dams housed in indoor/outdoor group housing. The infants were removed from the dams when they were approximately 2 weeks old and transferred to an indoor nursery, where they were housed in social pairs with either full contact or protected contact for the duration of the study. The infants were fed in accordance with the YNPRC standard operating procedures (SOPs) for NHP feeding. After being removed from the dam, infants were fed center-approved milk replacer (Similac Advance, OptiGro Infant Formula with Iron and/or Similac Soy Isomil OptiGro Infant Formula with Iron; Abbott Nutrition, Columbus, OH) until 14 weeks of age. Infants were provided softened standard primate jumbo chow biscuits (Jumbo Monkey Diet 5037; Purina Mills, St. Louis, MO) and a portion of orange starting between 2 to 4 weeks of age. As animals aged additional enrichment of various fresh produce items were provided daily. The animals were orally infected at 4 to 5 weeks of age with two consecutive doses of 10^5 TCID50 (50% tissue culture infectious doses) of SIVmac251. Three infants required multiple weekly 2-dose challenges before successful infection (totaling up to three challenges). Eight historical controls that followed the same regimen were included in this study. Yerkes National Primate Research Center is accredited by both the U.S. Department of Agriculture (USDA) and by the Association for Assessment and Accreditation of Laboratory Animal Care (AAALAC). All animal procedures were performed in accordance with guidelines established by the Emory University Institutional Animal Care and Use Committee Guidelines and those set up by the NIH’s Guide for the Care and Use of Laboratory Animals, 8th edition.
# The 12 RM infants were treated with a potent three-drug ART regimen initiated at 4 weeks postinfection. The preformulation ART cocktail contained two reverse transcriptase inhibitors, 5.1 mg/kg tenofovir disoproxil fumarate (TDF) and 40 mg/kg emtricitabine (FTC), plus 2.5 mg/kg of the integrase inhibitor dolutegravir (DTG). This ART cocktail was administered once daily at […] via the subcutaneous route.
# (§1) The IAPi AZD5582 was reconstituted to 0.4 mg/mL in 10% Captisol within 1 week of administration as previously described ([17]). Monkeys assigned to the experimental intervention group received 10 administrations of 0.1 mg/kg AZD5582 by intravenous (i.v.) infusion with an inline filter for 30 minutes every week for 10 weeks.
# Plasma viral quantification was performed as described previously ([12]). The frozen cell pellet was lysed with proteinase K (100 μg/mL in 10 mM Tris-HCl pH 8) for 1h at 56°C. Quantification of SIVmac gag DNA was performed by quantitative PCR (qPCR) using the 5′ nuclease (TaqMan) assay with an ABI7500 system (PerkinElmer Life Sciences). The sequence of the forward primer for SIVmac gag was 5′-[…]-3′, the reverse primer sequence was 5′-[…]-3′, and the probe sequence was 5′-6-carboxyfluorescein (FAM)-[…]-6-carboxytetramethylrhodamine (TAMRA)-3′. 7.5 μL of cell lysate were mixed in a 50 μL reaction mixture containing 1× Platinum Buffer, 3.5 mM MgCl2, 0.2 mM dNTP, primers 200 nM, probe 150 nM, and 2U Platinum Taq. For cell number quantification, quantitative PCR was performed simultaneously for monkey albumin gene copy number. […]
# [1] = tested on: SIV gag DNA in CD4+ T cells; test: Cell-associated SIV DNA / RNA in CD4+ T cells; assay type: in vivo; conditions: before dose 1, 3dp- and 2wp-AZD5582 treatment, infant RMs
# Experimental: Plasma viral quantification was performed as described previously ([12]). The frozen cell pellet was lysed with proteinase K (100 μg/mL in 10 mM Tris-HCl pH 8) for 1h at 56°C. Quantification of SIVmac gag DNA was performed by quantitative PCR (qPCR) using the 5′ nuclease (TaqMan) assay with an ABI7500 system (PerkinElmer Life Sciences). The sequence of the forward primer for SIVmac gag was 5′-[…]-3′, the reverse primer sequence was 5′-[…]-3′, and the probe sequence was 5′-6-carboxyfluorescein (FAM)-[…]-6-carboxytetramethylrhodamine (TAMRA)-3′. 7.5 μL of cell lysate were mixed in a 50 μL reaction mixture containing 1× Platinum Buffer, 3.5 mM MgCl2, 0.2 mM dNTP, primers 200 nM, probe 150 nM, and 2U Platinum Taq. For cell number quantification, quantitative PCR was performed simultaneously for monkey albumin gene copy number. The sequence of the forward primer for albumin was F 5′-[…]-3′; the reverse primer sequence was 5′- ATGGTCGCCTGTTCACCAA-3′ and the probe sequence was 5′-[…]-3′ ([34]). The reactions were performed on a 7500 real-time PCR system (Applied Biosystems) with the following thermal program: 10 min at 95°C, followed by 40 cycles of denaturation at 95°C for 15 s and annealing at 60°C for 1 min.
# [2] = Tolerability of repeated AZD5582 infusions in infant RMs; assay type: in vivo; conditions: 0.1 mg/kg i.v., 10 infusions
# Experimental: as §1
# EDTA-anticoagulated blood samples were collected regularly and used for a complete blood count, routine chemical analysis, and immunostaining, with plasma separated by centrifugation within 1 h of phlebotomy. PBMCs were prepared by density gradient centrifugation. Lymph node biopsy specimens were collected at indicated time points (Fig. 2A). Lymph nodes were ground using a 70-μm cell strainer. Cell suspensions were washed and immediately used for immunostaining or cryopreserved at −80°C until use.
# [3] = 10 weekly doses 0.1 mg/kg i.v., LOD 60 copies/mL
structure (smiles),measurement,setting,value
CN[C@@H](C)C(=O)N[C@H](C(=O)N1CCC[C@H]1C(=O)N[C@H]1c2ccccc2C[C@H]1OCC#CC#CCO[C@@H]1Cc2ccccc2[C@@H]1NC(=O)[C@@H]1CCCN1C(=O)[C@@H](NC(=O)[C@H](C)NC)C1CCCCC1)C1CCCCC1 [AZD5582],"First instance of latency reversal, time after the 4th dose",SIVmac251,48 h
same,"Start of on-ART viremia, time post-dose 4",SIVmac251,3 days
same,"SIV reactivation, per animal (RMs with on-ART viremia above LOD)",SIVmac251; [3],5/8
same,"SIV reactivation, per animal (percent of RMs with on-ART viremia)",SIVmac251; [3],63%
same,"SIV reactivation, events >60 copies/ml (percent of measurements)",SIVmac251; 135 measurements in the 5 RMs with on-ART viremia,6%
same,Peak on-ART viremia,"SIVmac251; RVf20, 2 days post-dose 9",771 copies/mL
same,"SIV reactivation, events >60 copies/ml (measurements above LOD)",SIVmac251; of 135 viral load measurements in the 5 RMs with on-ART viremia,8
same,Cell-associated SIV RNA in peripheral CD4+ T cells,[1],remained stable
same,Tolerability / clinical adverse events,[2],well-tolerated and safe
